Series [1] has as its system E. coli, ATCC 25922. The experiment in a line: microbe, parasite or virus in culture. The class given is cell-based.
Series [2] relates to E. coli, ΔtolC. Kind of series: microbe, parasite or virus in culture. The class given is cell-based.
Series [3] relates to E. coli, lptD. Kind of series: microbe, parasite or virus in culture. Format: cell-based.
Series [4] has as its system S. epidermidis ATCC 14990. Kind of series: microbe, parasite or virus in culture. Format: cell-based, Staphylococcus epidermidis. Conditions: ~1 × 10^5 cells/mL, starting 200 μg/mL. As to the method:
(§1) For antimicrobial activity determination, Gram-positive strains (Staphylococcus aureus 209P, ATCC 29213, ATCC 25923, ATCC 43300 [MRSA], S. epidermidis ATCC 14990) were used. Experiments were conducted at bacterial concentrations of (0.5–1) × 10^5 cells/mL. […] Briefly, overnight cultures in Mueller-Hinton broth (MHB, HiMedia, Mumbai, Maharashtra, India) were diluted 1:100 into fresh MHB and incubated at 37 °C for 3 h. Cultures were then adjusted to ~1 × 10^5 cells/mL (by OD600) and used as an inoculate. Peptide stocks (10 mg/mL in water) were prepared in MHB to achieve a starting concentration of 200 μg/mL and subsequently diluted twofold.

Series [5] has as its system S. aureus ATCC 29213 (MSSA). The experiment in a line: microbe, parasite or virus in culture. Conditions: two-fold serial dilution in MHB, ~1 × 10^5 cells/mL, starting 200 μg/mL. The class given is cell-based, Staphylococcus aureus. On the procedure: as §1
The test system of series [6] is S. aureus ATCC 43300 (MRSA). The experiment in a line: microbe, parasite or virus in culture. Format: cell-based, Staphylococcus aureus. On the procedure:
as §1

The test system of series [7] is S. aureus ATCC 25923. Kind of series: microbe, parasite or virus in culture. Format: cell-based, Staphylococcus aureus. The conditions noted are these: ~1 × 10^5 cells/mL, starting 200 μg/mL. As to the method: as §1
Series [8] relates to S. aureus 209P cells. The experiment in a line: Confocal microscopy of plasma membrane permeability to BCECF and PI. Conditions: 25 µM peptide, 15 min, Mueller–Hinton broth, CLSM. The class given is cell-based, Staphylococcus aureus. On the procedure: Confocal laser scanning microscopy (CLSM) measurements were performed with an SP2 confocal inverted microscope (Leica Microsystems GmbH, Wetzlar, Germany) using the water-immersion 63×, 1.2 NA HCX PL APO objective. A typical voxel size was 0.15 × 0.15 × 0.9 μm. Excitation wavelengths were 561 nm for propidium iodide (PI) and 488 nm for 2′,7′-Bis-(2-carboxyethyl)-5-(and-6)-carboxyfluorescein (BCECF) (Sigma-Aldrich, MO, USA). Laser power was 3–10 μW the sample. Fluorescence was detected in the 500–550 and 650–700 nm ranges for BCECF and PI, respectively. S. aureus 209P cells were preincubated with acetoxymethyl ester of BCECF (10 μM) in Hank’s balanced salt solution for 30 min at 37 °C, exposed to PI (15 μM) and peptide XIII (25 μM) for 15 min in Mueller–Hinton broth, centrifuged gently in order to concentrate the cells (1600× g, 5 min, 20 °C), and examined by CLSM. Control cells were subjected to the same procedures but without addition of the peptide.

Series [9] concerns human red blood cells. The experiment in a line: Hemolytic activity. Format: cell-based. Conditions: for Hemolysis (%): fresh human capillary blood, two independent experiments; for Hemolytic activity (in words): human red blood cells, up to 100 μM. On the procedure: Hemolytic activity was assessed using fresh capillary blood from a human volunteer, as described in [28]. Each peptide’s hemolytic activity was tested in two independent experiments.

Series [10] deals with S. aureus 209P. The experiment in a line: MIC, two-fold serial dilution in Mueller-Hinton broth. Format: cell-based, Staphylococcus aureus. The conditions noted are these: conditions identical to those of Figure 2. As to the method: as §1
The mechanism was investigated using the S. aureus 209P strain.

Series [11] concerns the target His12 (position 12, KFAGKHL----). The experiment in a line: NMR.
[12] abbreviates: two-fold serial dilution in MHB, values in Figure 2.
The mark [13] stands for this setting: S. aureus ATCC 43300 (MRSA), two-fold serial dilution in MHB, ~1 × 10^5 cells/mL, starting 200 μg/mL, Figure 2.
Setting [14] is: two-fold serial dilution in MHB, Figure 2.

Experimental findings from paper PMC12736563, “NMR Unveils Activity Mechanism of Linear Spider Venom Peptide Fragments Selected by Neural Networks Against Staphylococci Including MRSA” (Pharmaceutics, 2025) are described below.

Converted amounts (≈) assume the structure as drawn. “Also recorded” adds a separate entry of the source. Where two headings read alike, the source gives them in different places. Ends that are not written are not given here.

Regarding `CC1(C)S[C@@H]2[C@H](NC(=O)[C@H](N)c3ccccc3)C(=O)N2[C@H]1C(=O)O` [Ampicillin, reference compound], the MIC in series [1] (Escherichia coli, ATCC25922, read-out: MIC) came out at 3.12 µg/mL (≈ 8.94 µM).

Turning to `CCn1cc(C(=O)O)c(=O)c2ccc(C)nc21` [Nalidixic acid, reference compound], the MIC in [2] (Escherichia coli) and in [3] (Escherichia coli) was 1.56 µg/mL (≈ 6.72 µM) in each case.

As to `CN[C@H](CC(C)C)C(=O)N[C@H]1C(=O)N[C@@H](CC(N)=O)C(=O)N[C@H]2C(=O)N[C@H]3C(=O)N[C@H](C(=O)N[C@H](C(=O)O)c4cc(O)cc(O)c4-c4cc3ccc4O)[C@H](O)c3ccc(c(Cl)c3)Oc3cc2cc(c3O[C@@H]2O[C@H](CO)[C@@H](O)[C@H](O)[C@H]2O[C@H]2C[C@](C)(N)[C@H](O)[C@H](C)O2)Oc2ccc(cc2Cl)[C@H]1O` [vancomycin, reference compound], the MIC came out at 0.78 µg/mL (≈ 0.538 µM) in [4] (Staphylococcus epidermidis, ATCC14990, two-fold serial dilution in MHB, values in Figure 2, read-out: MIC); 0.78 µg/mL (≈ 0.538 µM) in series [5] (Staphylococcus aureus, Figure 2, read-out: MIC); 1.56 µg/mL (≈ 1.08 µM) in series [6] (Staphylococcus aureus); 3.12 µg/mL (≈ 2.15 µM) in [7] (Staphylococcus aureus, ATCC25923, two-fold serial dilution in MHB, Figure 2, read-out: MIC).

For the molecule AIWSSAMQFFIKHLKK [III], the MIC in series [4] (setting [12]), in [5] (Figure 2), in [6] (setting [13]) and in series [7] (setting [14]) was above 200.00 µg/mL throughout.

FMKRLISKGKIGKEKLVAF [II]: the MIC in [4] (setting [12]), in [5] (Figure 2), in [6] (setting [13]) and in series [7] (setting [14]) was above 200.00 µg/mL each time.

As for FWFKALKSVAKFIA-NH2 [XIII], the MIC in [4] (setting [12]) was found to be 6.25 µg/mL; in series [10] it was 6.25 µg/mL; in series [2] (E. coli, ΔtolC), 50 µg/mL; in series [3] (E. coli, lptD), 100 µg/mL; in series [5] (Figure 2), 3.12 µg/mL; in series [6] (setting [13]), 6.25 µg/mL. Also, the MIC is 6.25 µg/mL in series [7] (setting [14]) and 50 µg/mL in [1]. For the same molecule, the “entry of propidium iodide (PI) into cells” value in series [8] is “PI penetrates into cells”. The “leakage of BCECF from cells” value in series [8] is “is released from them”. For the same molecule, the “Hemolysis (%)” value in series [9] (25 μM peptide), in series [9] (50 μM peptide) and in series [9] (100 μM peptide) was 0% each time. For the same molecule, the “Hemolytic activity (in words)” value in series [9] is given as “minimal hemolytic activity; also recorded: lack of hemolysis”.

Consider GWMKALKEHVEKLNKTGKLK [I], for which the MIC in [4] (setting [12]), in series [5] (Figure 2), in series [6] (setting [13]) and in series [7] (setting [14]) was above 200.00 µg/mL in each case.

Take IIWLPVLKFLASHV-NH2 [XIV]: the MIC in [4] (setting [12]) was 6.25 µg/mL; in series [2] (E. coli, ΔtolC) it was above 200 µg/mL; in series [3] (E. coli, lptD) it was 100 µg/mL; in series [5] (Figure 2), 12.50 µg/mL; in series [6] (setting [13]), 12.50 µg/mL; in [7] (setting [14]) it was 25.00 µg/mL. Also, the MIC in series [1] is 200 µg/mL. Besides, the figures for the “Hemolysis (%)” value in series [9] (25 μM peptide), in series [9] (50 μM peptide) and in [9] (100 μM peptide) were 0%, 60% and 100%, respectively.

In the case of ILADLIAKLKVRAA-NH2 [V], the MIC in series [4] (setting [12]), in series [5] (Figure 2), in series [6] (setting [13]) and in series [7] (setting [14]) was above 200.00 µg/mL throughout.

For the molecule IWLSLMKFAGKHL [X], the MIC in [4] (setting [12]), in series [5] (Figure 2), in series [6] (setting [13]) and in series [7] (setting [14]) was above 200.00 µg/mL in each case.

In the case of “IWWTAVKFFGKQL-NH2 [XV, 13-residue fragment of Lycosin 9o from Lycosa hispanica; negative control in hemolysis]”, the MIC in series [4] (setting [12]), in [5] (Figure 2), in series [6] (setting [13]) and in series [7] (setting [14]) was above 200.00 µg/mL throughout. For the same molecule, the “Hemolysis (%)” value in series [9] (25 μM peptide), in [9] (50 μM peptide) and in series [9] (100 μM peptide) was 0% each time. In [9], the “Hemolytic activity (in words)” value is “lack of hemolytic activity”.

For KFAGKHLAKH-NH2 [XII], the MIC in series [4] (setting [12]), in series [5] (Figure 2), in series [6] (setting [13]) and in series [7] (setting [14]) was above 200.00 µg/mL throughout.

For the molecule LMKFAGKHLAKH-NH2 [XI], the MIC in series [4] (setting [12]), in [5] (Figure 2), in series [6] (setting [13]) and in series [7] (setting [14]) was above 200.00 µg/mL throughout.

As for LSLMKFAGKHLAKH-NH2 [VIII], the MIC in [4] (setting [12]), in series [5] (Figure 2), in series [6] (setting [13]) and in series [7] (setting [14]) was above 200.00 µg/mL throughout.

Turning to LSLMKFAGKHLAKHQL [VII], the MIC in [4] (setting [12]) is 25.00 µg/mL; in series [2] (E. coli, ΔtolC) it was above 200 µg/mL; in series [3] (E. coli, lptD), 12.5 µg/mL; in [5] (Figure 2), above 200.00 µg/mL; in series [6] (setting [13]), above 200.00 µg/mL; in series [7] (setting [14]), above 200.00 µg/mL. Besides, the MIC in series [1] was above 200 µg/mL.

Turning to SLMKFAGKHLAKHQLSKMG-NH2 [VI], the MIC in series [4] (setting [12]), in [5] (Figure 2), in series [6] (setting [13]) and in [7] (setting [14]) was above 200.00 µg/mL throughout.

As usually defined, the pKa is the pH at which an ionisable group is half protonated. As for IWLSLMKFAGKHL [Peptide IX (N-terminal 13-residue fragment of Lycosin 9i) (Lycosa hispanica)], the pKa in series [11] (30 °C, free peptide in aqueous solution, disordered (random coil), 1 mM) turned out to be 6.02±0.05; in series [11] (45 °C, bound to anionic LPPG micelles, structured (helix-like Ile1-Met6, α-helix Lys7-Leu13)), 7.89 ± 0.24.
